Reference: patent US12521440B2, “Degradation of bruton's tyrosine kinase (BTK) by conjugation of BTK inhibitors with E3 ligase ligand and methods of use” (BeOne Medicines I GmbH, priority 2021, dated 2026)
pIC50: −log10 of the molar value.

Legend:
BTK = target: T1, BTK (Homo sapiens, UniProt Q06187); assay: BTK degradation in TMD-8 cells (HTRF assay); assay type: cell-based; conditions: 6 h treatment, HTRF BTK degradation IC50 (DC50)
T1 construct: endogenous in cells; host or cells: TMD-8 cells
T1 sequence (Q06187 whole entry): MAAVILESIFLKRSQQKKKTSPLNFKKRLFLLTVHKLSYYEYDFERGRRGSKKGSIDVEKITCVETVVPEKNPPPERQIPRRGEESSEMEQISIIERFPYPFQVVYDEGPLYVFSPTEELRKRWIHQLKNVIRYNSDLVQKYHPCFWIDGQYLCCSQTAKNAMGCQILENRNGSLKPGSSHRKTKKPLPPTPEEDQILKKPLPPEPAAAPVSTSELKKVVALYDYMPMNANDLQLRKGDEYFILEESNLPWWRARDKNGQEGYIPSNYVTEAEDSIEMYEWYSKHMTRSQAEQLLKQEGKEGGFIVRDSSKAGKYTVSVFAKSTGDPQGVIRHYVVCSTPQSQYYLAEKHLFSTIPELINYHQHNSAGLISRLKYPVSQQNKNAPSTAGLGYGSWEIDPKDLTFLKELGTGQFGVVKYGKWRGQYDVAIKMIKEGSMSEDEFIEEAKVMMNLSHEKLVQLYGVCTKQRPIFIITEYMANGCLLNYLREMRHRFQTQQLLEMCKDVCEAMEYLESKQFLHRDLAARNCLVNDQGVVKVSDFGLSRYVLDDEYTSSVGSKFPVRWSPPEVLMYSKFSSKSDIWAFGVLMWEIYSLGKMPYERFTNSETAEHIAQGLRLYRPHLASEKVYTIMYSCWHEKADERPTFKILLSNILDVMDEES
Protocol: TMD-8 cells were treated with compounds diluted in 0.2% DMSO, dilution was done according to the following protocol: (1) making 500×stock solution in DMSO from 1 mM by 6-fold dilution, total 8 doses were included; (2) making 2×solution in cell culture medium by transferring 0.5 μl 500×stock solution into 125 μl medium; (3) adding 15 μl of 2×solution to cells for incubation of 6 h.
After 6 h treatment, 10 μl 4×lysis buffer was added to each well; the plate was sealed and incubated for 30 min at room temperature on a plate shaker; Once the cells was lysed, 16 μL of cell lysate were transferred to a PE 384-well HTRF detection plate; 4 μL of pre-mixed HTRF antibodies were added to each well; the plate was covered with a plate sealer, and then spinned at 1000 rpm for 1 min, then incubated overnight at room temperature; the results were read on BMG PheraStar with HTRF protocol (337 nm-665 nm-620 nm).
(§1) The IC50 (DC50) value of a compound can be obtained by fitting the following equation Y=Bottom+(TOP−Bottom)/(1+((IC50/X)^hillslope)) wherein, X and Y are known values, and IC50, Hillslope, Top and Bottom are the parameters obtained by fitting with software. Y is the inhibition percentage (calculated from the equation), X is the concentration of the compound; IC50 is the concentration of the compound when the 50% inhibition is reached. The smaller the IC50 value is, the stronger the inhibitory ability of the compound is. Vice versa, the higher the IC50 value is, the weaker the ability the inhibitory ability of the compound is; Hillslope represents the slope of the fitted curve, generally around 1*; Bottom represents the minimum value of the curve obtained by data fitting, which is generally 0%±20%; Top represents the maximum value of the curve obtained by data fitting, which is generally 100%±20%. The experimental data were fitted by calculating and analyzing with Dotmatics data analysis software. HEK-293 Cell Treatment

HEK-293 cells = assay: HEK-293 cytotoxicity detection (CellTiter-Glo); assay type: cell-based; conditions: Homo sapiens, 72 h incubation, read-out: HEK293
Excerpt: as §1
HEK-293 cells were treated with compounds diluted in 0.2% DMSO, dilution was done according to the following protocol: (1) making 500×stock solution in DMSO from 5 mM by 4-fold dilution, total 8 doses were included; (2) making 2×solution in cell culture medium by transferring 0.5 ul 500×stock solution into 125 ul medium; (3) adding 50 ul of 2×solution to cells for incubation of 72 h.
25 μl of the CellTiter-Glo® Reagent [(Promega)—Cat No. G7572] was added to each well in the 96-well plate. The contents were mixed for 2 minutes on an orbital shaker to induce cell lysis. The plate was then allowed to incubate at room temperature for 10 minutes to stabilize luminescent signal. Luminescence was recorded on BMG PheraStar with luminescence protocol.
as §1, with “IC50” for “IC50 (DC50)”, “Wherein,” for “wherein,”, “software.” for “software. HEK-293 Cell Treatment”

## Cc1c([C@@H](C)NC(=O)c2nc(C(C)(C)C)no2)ccc(-c2cc(Nc3ccc(N4CCN(CC5CCN(c6ccc(N7CCC(=O)NC7=O)cc6)CC5)CC4)cn3)ncn2)c1F [Example 9, (R)-3-(tert-butyl)-N-(1-(4-(6-((5-(4-((1-(4-(2,4-dioxotetrahydropyrimidin-1(2H)-yl)phenyl)piperidin-4-yl)methyl)piperazin-1-yl)pyridin-2-yl)amino)pyrimidin-4-yl)-3-fluoro-2-methylphenyl)ethyl)-1,2,4-oxadiazole-5-carboxamide]
BTK
  DC50: 138 nM
HEK-293 cells
  pIC50: < 5.00

## Cc1cc(-c2cc(Nc3ccc(N4CCN(CCn5cccc(CN6CCC(=O)NC6=O)c5=O)CC4)cn3)ncn2)ccc1[C@@H](C)NC(=O)c1nc(C(C)(C)C)no1 [Example 58, (R)-3-(tert-butyl)-N-(1-(4-(6-((5-(4-(2-(3-((2,4-dioxotetrahydropyrimidin-1(2H)-yl)methyl)-2-oxopyridin-1(2H)-yl)ethyl)piperazin-1-yl)pyridin-2-yl)amino)pyrimidin-4-yl)-2-methylphenyl)ethyl)-1,2,4-oxadiazole-5-carboxamide]
BTK
  DC50: 0.276 nM
HEK-293 cells
  pIC50: < 5.00

## Cc1cc(-c2ncnc(Nc3ccc(N4CCN(CC5CCN(c6ccc(N7CCC(=O)NC7=O)cc6)CC5)CC4)cn3)c2F)ccc1[C@@H](C)NC(=O)c1nc(C(C)(C)C)no1 [Example 70, (R)-3-(tert-butyl)-N-(1-(4-(6-((5-(4-((1-(4-(2,4-dioxotetrahydropyrimidin-1(2H)-yl)phenyl)piperidin-4-yl)methyl)piperazin-1-yl)pyridin-2-yl)amino)-5-fluoropyrimidin-4-yl)-2-methylphenyl)ethyl)-1,2,4-oxadiazole-5-carboxamide]
BTK
  DC50: > 2000 nM
HEK-293 cells
  pIC50: < 5.00

## Cc1cc(-c2cc(Nc3ccc(N4CCN([C@H]5C[C@@H](c6ccc(N[C@@H]7CCC(=O)NC7=O)cc6)C5)CC4)cn3)ncn2)ccc1[C@@H](C)NC(=O)c1nc(C(C)(C)C)no1 [Example 52, 3-(tert-butyl)-N—((R)-1-(4-(6-((5-(4-((1S,3s)-3-(4-(((R)-2,6-dioxopiperidin-3-yl)amino)phenyl)cyclobutyl)piperazin-1-yl)pyridin-2-yl)amino)pyrimidin-4-yl)-2-methylphenyl)ethyl)-1,2,4-oxadiazole-5-carboxamide]
BTK
  DC50: 3.04 nM
HEK-293 cells
  pIC50: < 5.00

## COc1cc(Nc2cc(-c3ccc([C@@H](C)NC(=O)c4nc(C(C)(C)C)no4)c(C)c3)ncn2)ncc1N1CCN(CC2CCN(c3ccc(N4CCC(=O)NC4=O)cc3)CC2)CC1 [Example 64, (R)-3-(tert-butyl)-N-(1-(4-(6-((5-(4-((1-(4-(2,4-dioxotetrahydropyrimidin-1(2H)-yl)phenyl)piperidin-4-yl)methyl)piperazin-1-yl)-4-methoxypyridin-2-yl)amino)pyrimidin-4-yl)-2-methylphenyl)ethyl)-1,2,4-oxadiazole-5-carboxamide]
BTK
  DC50: 26 nM
HEK-293 cells
  pIC50: < 5.00

## Cc1cc(-c2cc(Nc3ccc(N4CCN(C(=O)C5CCN(c6ccc(N7CCC(=O)NC7=O)cc6)CC5)CC4)cn3)ncn2)ccc1[C@@H](C)NC(=O)c1nc(C(C)(C)C)no1 [Example 28, (R)-3-(tert-butyl)-N-(1-(4-(6-((5-(4-(1-(4-(2,4-dioxotetrahydropyrimidin-1(2H)-yl)phenyl)piperidine-4-carbonyl)piperazin-1-yl)pyridin-2-yl)amino)pyrimidin-4-yl)-2-methylphenyl)ethyl)-1,2,4-oxadiazole-5-carboxamide]
BTK
  DC50: 1.66 nM
HEK-293 cells
  pIC50: < 5.00

## Cc1cc(-c2cc(Nc3ccc(N4CCN(CC5CCN(c6ccc(N7CCC(=O)NC7=O)cc6)CC5)CC4)cn3)ncn2)ccc1[C@@H](C)NC(=O)c1nc(C(C)(C)C)no1 [Example 16, (R)-3-(tert-butyl)-N-(1-(4-(6-((5-(4-((1-(4-(2,4-dioxotetrahydropyrimidin-1(2H)-yl)phenyl)piperidin-4-yl)methyl)piperazin-1-yl)pyridin-2-yl)amino)pyrimidin-4-yl)-2-methylphenyl)ethyl)-1,2,4oxadiazole-5-carboxamide]
BTK
  DC50: 1.29 nM
HEK-293 cells
  pIC50: < 5.00

## Cc1cc(-c2cc(Nc3ccc(N4CCN(C5CN(c6ccc(N7CCC(=O)NC7=O)cc6)C5)CC4)cn3)ncn2)ccc1[C@@H](C)NC(=O)c1nc(C2(C)CC2)no1 [Example 12, (R)—N-(1-(4-(6-((5-(4-(1-(4-(2,4-dioxotetrahydropyrimidin-1(2H)-yl)phenyl)azetidin-3-yl)piperazin-1-yl)pyridin-2-yl)amino)pyrimidin-4-yl)-2-methylphenyl)ethyl)-3-(1-methylcyclopropyl)-1,2,4-oxadiazole-5-carboxamide]
BTK
  DC50: 1.28 nM
HEK-293 cells
  pIC50: < 5.00

## Cc1cc(-c2ccnc(Nc3ccc(N4CCN(CC5CCN(c6ccc(N7CCC(=O)NC7=O)cc6)CC5)CC4)c(F)n3)n2)ccc1[C@@H](C)NC(=O)c1nc(C(C)(C)C)no1 [Example 66, (R)-3-(tert-butyl)-N-(1-(4-(2-((5-(4-((1-(4-(2,4-dioxotetrahydropyrimidin-1(2H)-yl)phenyl)piperidin-4-yl)methyl)piperazin-1-yl)-6-fluoropyridin-2-yl)amino)pyrimidin-4-yl)-2-methylphenyl)ethyl)-1,2,4-oxadiazole-5-carboxamide]
BTK
  DC50: 2.93 nM
HEK-293 cells
  pIC50: < 5.00

## Cc1cc(-c2cc(Nc3ccc(N4CCN(CC5CCN(c6ccc(N7CCC(=O)NC7=O)cc6)CC5)CC4)nc3)ncn2)ccc1[C@@H](C)NC(=O)c1nc(C2(C)CC2)no1 [Example 10, (R)—N-(1-(4-(6-((6-(4-((1-(4-(2,4-dioxotetrahydropyrimidin-1(2H)-yl)phenyl)piperidin-4-yl)methyl)piperazin-1-yl)pyridin-3-yl)amino)pyrimidin-4-yl)-2-methylphenyl)ethyl)-3-(1-methylcyclopropyl)-1,2,4-oxadiazole-5-carboxamide]
BTK
  DC50: 89.5 nM
HEK-293 cells
  pIC50: < 5.00

## Cc1cc(-c2cc(Nc3ccc(N4CCC5(CC4)CN(C(=O)C4CCN(c6ccc(N7CCC(=O)NC7=O)cc6)C4)C5)cn3)ncn2)ccc1[C@@H](C)NC(=O)c1nc(C(C)(C)C)no1 (stereo partly drawn) [Example 38, 3-(tert-butyl)-N-((1R)-1-(4-(6-((5-(2-(1-(4-(2,4-dioxotetrahydropyrimidin-1(2H)-yl)phenyl)pyrrolidine-3-carbonyl)-2,7-diazaspiro[3.5]nonan-7-yl)pyridin-2-yl)amino)pyrimidin-4-yl)-2-methylphenyl)ethyl)-1,2,4-oxadiazole-5-carboxamide]
BTK
  DC50: 0.954 nM
HEK-293 cells
  pIC50: < 5.00

## Cc1cc(-c2cc(Nc3ccc(N4CC5(CCN(CC6CCN(c7ccc(N8CCC(=O)NC8=O)cc7)CC6)CC5)C4)cn3)ncn2)ccc1[C@@H](C)NC(=O)c1nc(C(C)(C)C)no1 [Example 33, (R)-3-(tert-butyl)-N-(1-(4-(6-((5-(7-((1-(4-(2,4-dioxotetrahydropyrimidin-1(2H)-yl)phenyl)piperidin-4-yl)methyl)-2,7-diazaspiro [3.5]nonan-2-yl)pyridin-2-yl)amino)pyrimidin-4-yl)-2-methylphenyl)ethyl)-1,2,4-oxadiazole-5-carboxamide]
BTK
  DC50: 1.3 nM
HEK-293 cells
  pIC50: < 5.00

## Cc1cc(-c2cc(Nc3ccc(N4CCN(CC5CCN(c6cccc(CN7CCC(=O)NC7=O)c6)CC5)CC4)cn3)ncn2)ccc1[C@@H](C)NC(=O)c1nc(C(C)(C)C)no1 [Example 57, (R)-3-(tert-butyl)-N-(1-(4-(6-((5-(4-((1-(3-((2,4-dioxotetrahydropyrimidin-1(2H)-yl)methyl)phenyl)piperidin-4-yl)methyl)piperazin-1-yl)pyridin-2-yl)amino)pyrimidin-4-yl)-2-methylphenyl)ethyl)-1,2,4-oxadiazole-5-carboxamide]
BTK
  DC50: 29.5 nM
HEK-293 cells
  pIC50: < 5.00
